Measured values taken from patent US4563471A, “4-Oxothiazolidin-2-ylidene-acetamide derivatives as CNS agents” (Warner-Lambert Company, priority 1983, dated 1986).
Where two headings read alike, the source gives them in different places.

What was measured:
[1] = test system: male mice (NMRI); assay: Electroshock; format: in vivo, mouse
Procedure: (§1) In the case of all substances, there was used in the cramp test as vehicle 0.8% Methocel mucilage. The premedication time amounted to 30 minutes, insofar as nothing else is stated, and the administration took place i.g. in 20 ml/kg body weight.
(§2) Experimental animals were male mice (NMRI) with a body weight of 18 to 24 g., which were kept under controlled conditions. Twenty-four hours (if not stated otherwise) before commencement of the experiment, the feed was withdrawn but, up to the commencement of the experiment, the drinking water was left.
(§3) Per dosage, in each case ten animals were subjected to the test.
3. […] For the transmission of the current impact, electrodes in the form of ear clips were fixed to the ears of the mouse. The period of the shock amounted to 0.3 s., the current strength to 35 mA (voltage self-regulating).

[2] = test system: male mice (NMRI); assay: Pentetrazole cramp; format: in vivo, mouse; conditions: po, 20 min; for ED50: read-out: ED50 pentetrazole cramp
Procedure: as §1, §2, §3

[3] = test system: male mice (NMRI); assay: Semicarbazide cramp; format: in vivo, mouse; conditions: po, 1.5 h; for ED50: read-out: ED50 semicarbazide cramp
Procedure: as §1, §2, §3
7. Semicarbazide cramp--Semicarbazide hydrochloride was used as cramp agent in a dosage of 1000 mg/kg s.c. The observation time amounted in each case to 90 minutes p.a.

[4] = test system: male mice (NMRI); assay: Picrotoxin cramp; format: in vivo, mouse; conditions: for ED50: Mus musculus, po, 20 min, read-out: ED50 picrotoxin cramp; for ED50 picrotoxin cramp: i.g., male mouse, picrotoxin 15 mg/kg s.c., observation 20 min
Procedure: as §1, §2, §3

[5] = test system: male mice (NMRI); assay: Strychnine cramp; format: in vivo, mouse; conditions: for ED50: Mus musculus, po, 20 min, read-out: ED50 strychnine cramp; for ED50 strychnine cramp: i.g., male mouse, strychnine 1.1 mg/kg s.c., observation 20 min
Procedure: as §1, §2, §3
2. Strychnine cramp--As convulsive, there was used strychnine nitric cryst in a dosage of 1.1 mg/kg s.c., whereby the observation time amount to 20 minutes p.a.

[6] = test system: male mice (NMRI); assay: 3-Mercaptopropionic acid cramp (3-MPA); format: in vivo, mouse; conditions: po, 0.5 h, read-out: ED50 3-MPA cramp
Procedure: as §1, §2, §3
8. 3-Mercaptopropionic acid--3-Mercaptopropionic acid was diluted with physiological NaCl solution, adjusted with 6 mol/l NaOH to PH 7 and brought with NaCl solution to the end volume (10 ml/kg). The observation time amounted to 30 minutes.

[7] = test system: male mice (NMRI); assay: Isoniazide cramp; format: in vivo, mouse; conditions: po, 1.5 h, read-out: ED50 isoniazide cramp
Procedure: as §1, §2, §3

[8] = test system: male mice (NMRI); assay: Bicuculline cramp; format: in vivo; conditions: po, 20 min; i.g., male mouse; bicuculline 3.0 mg/kg s.c.; observation 20 min
Procedure: as §1, §2, §3
(§4) As positive standard, there were used phenytoin, valproate, GABA and baclofen.
6. Bicuculline cramp--Cramp agent was bicuculline purum. The dosage amounted to 3.0 mg/kg s.c. The observation time amount to 20 minutes.

[9] = test system: DBA/2j mice; assay: Audiogenic cramps; format: in vivo, mouse; conditions: po, 1 min, read-out: ED50 audiogenic cramp
Procedure: as §1
(§5) In the case of the audiogenic cramps, DBA/2j mice of male sex were used in a weight of 5-10 g which, on the day before the experiment, were removed and not fasted.
as §3
9. […] The observation time amount to one minute.

[10] = in vivo; conditions: mouse, po
Procedure: The determination of the acute toxicity was carried out on male mice (NMRI) with a body weight of 18-23 g. All experimental animals were fasted for 20 hours before commencement of the experiment. Water was available ad libitum. To each dosage group there belonged four animals. The dosage sequence was logarithmic. The test substances were administered intragastrally as suspension in 0.88% Methocel. The volume of administration amounted to 20 ml/kg.

[11] = test system: mice; assay: Comparative investigations of the anticonvulsive action in cramp models 1-9 (overall); format: in vivo; conditions: all cramp models, i.g., male mouse
Procedure: as §1, §2, §5, §3, §4

[12] = po, 5 min, i.g., male mouse, 35 mA, 0.3 s, observation 5 min, read-out: ED50 electroshock
[13] = i.g., male mouse, pentetrazole 140 mg/kg s.c., observation 20 min
[14] = i.g., male mouse, semicarbazide hydrochloride 1000 mg/kg s.c., observation 90 min
[15] = i.g., male mouse, 3-mercaptopropionic acid, observation 30 min
[16] = i.g., male mouse, isoniazide 250 mg/kg s.c., observation 90 min
[17] = i.g., male DBA/2j mouse, 10.9 KHz sound of 110 dBA, 30 s, observation 1 min

Compound | ED50 [1, 12] [mg/kg] | ED50 [2, 13] [mg/kg] | ED50 [3, 14] [mg/kg] | ED50 [4] [mg/kg] | ED50 [5] [mg/kg] | ED50 [6, 15] [mg/kg] | ED50 [7, 16] [mg/kg] | ED50 [8] [mg/kg] | ED50 [9, 17] [mg/kg] | LD50 at 168 h [10] [mg/kg] | selectivity ratio [10] | ED50 strychnine cramp [5] | also measured
Cc1cccc(C)c1NC(=O)/C=C1\SCC(=O)N1C [2 (a), (Z)-(3-Methyl-4-oxothiazolidin-2-ylidene)-N-(2,6-dimethylphenyl)-acetamide] | 13.6 | 19.9 | 14.1 | 11.3 | 14.9 | 8.7 | 5.32 | 2.68 | 2.9 | 1980 | 99.8 to 739 | – | –
Cc1cccc(Cl)c1NC(=O)/C=C1\SCC(=O)N1C [2 (i), (Z)-(3-methyl-4-oxothiazolidin-2-ylidene)-N-(2-chloro-6-methylphenyl)-acetamide] | 6.47 | 1.9 | 1.59 | 2.34 | 5.09 | 1.29 | 1.24 | 0.9 | 3 | > 1600 | 243 to 1780 | – | –
CN1C(=O)CS/C1=C\C(=O)Nc1c(Cl)cccc1Cl [2 (j), (Z)-(3-methyl-4-oxothiazolidin-2-ylidene)-N-(2,6-dichlorophenyl)-acetamide] | 4.03 | 1.8 | 3.41 | 1.52 | 5.68 | 1.73 | 5 | 0.8 | 2 | 1600 | 282 to 2000 | – | –
NCCCC(=O)O [GABA] | – | 500 | 60 | – | – | – | – | – | – | – | – | inactive | ED50 electroshock ([1]; i.g., male mouse, 35 mA, 0.3 s, observation 5 min): inactive; ED50 picrotoxin cramp [4]: inactive
NCC(CC(=O)O)c1ccc(Cl)cc1 (centres unmarked) [baclofen] | – | – | – | 30 | 8.5 | – | – | 20 | – | 200 | 2 to 100 | – | ED50 ([1]; Mus musculus, po, 5 min, read-out: ED50 electroshock): 20 mg/kg; ED50 ([2]; Mus musculus): 100 mg/kg; ED50 ([3]; Mus musculus): 4 mg/kg; ED50 ([6]; Mus musculus): 20 mg/kg; ED50 ([7]; Mus musculus): 2 mg/kg; ED50 ([9]; Mus musculus): 5 mg/kg; Side effects [11]: Side effects in all models
O=C1NC(=O)C(c2ccccc2)(c2ccccc2)N1 [phenytoin] | – | – | – | 200 | – | – | 38 | 12.5 | 2.3 | – | – | inactive | ED50 ([1]; Mus musculus, iv, 5 min, read-out: ED50 electroshock (i.v.)): 12.5 mg/kg; ED100 ([1]; po, 5 min, ED 100, i.g., male mouse): 50 mg/kg; ED100 ([2]; ED 100, i.g., male mouse): 50 mg/kg; ED90 ([3]; ED 90, i.g., male mouse): 50 mg/kg
CCCC(CCC)C(=O)O [valproate] | – | – | – | – | – | – | – | – | – | 2000 | 8 to 14.8 | inactive | ED40 ([1]; Mus musculus, po, 5 min, read-out: ED 40 electroshock): 200 mg/kg; ED50 ([2]; Mus musculus): ~250 mg/kg; ED50 ([3]; Mus musculus): 100 mg/kg; ED50 picrotoxin cramp [4]: inactive; ED50 ([6]; Mus musculus): 154 mg/kg; ED50 ([7]; Mus musculus): 135 mg/kg
